Experimental data reported in patent US20070135383A1, “Phospholipase inhibitors, including multi-valent phospholipase inhibitors, and use thereof, including as lumen-localized phospholipase inhibitors” (priority 2005, published 2007).

Legend:
Assay type in all cases: in vivo
mice = assay: Toxicology, daily oral gavage for 5 consecutive days (Example 23)
From the text: The purpose of this study was to evaluate the toxicity of indole and indole-related Test Articles when administered daily via oral gavage to mice for 5 consecutive days.
Assessment of toxicity was based on mortality; clinical signs, body weight, food consumption, clinical pathology, and macroscopic pathology data.

[1] = test system: LDL receptor knockout mice; assay: LDL receptor knockout mouse model (Example 20); conditions: low fat control diet D12328, 25 or 90 mg/kg/d
From the text: Mice lack an enzyme found in humans, cholesterol ester transfer protein (CETP), which is responsible for the transfer of cholesterol from high density lipoproteins (HDL) to the ApoB-containing lipoproteins such as very low density lipoproteins (VLDL) and low density lipoproteins (LDL). Consequently, LDL cholesterol levels in wild-type mice are very low compared to those seen in humans. The low density lipoprotein receptor (LDLR) is involved with clearing LDL and lipoprotein remnants containing apoE. If the LDLR is inactivated, LDL cholesterol levels rise to levels seen in humans. On a normal rodent diet, the LDL cholesterol levels in LDLR deficient mice are elevated compared to wild-type mice. […]
In these studies and the accompanying figures, Diet D12328 from Research Diets is referred to as the “Low Fat” or Control diet, while Diet D12079B from Research Diets is referred to as the “Western” diet. […] The Test Article content was calculated such that ad libitum consumption by the animals would deliver doses (in mg of Test Article per Kg animal weight per day) approximating those listed in Table 12.
Animals were maintained on the diets for eight weeks. Body weights were recorded weekly. […] The serum was analyzed for total cholesterol, LDL cholesterol, HDL cholesterol, triglycerides (TG), free fatty acid (FFA) and lysophospholipid (LPC) content. […]

[2] = test system: C57BL/6J mouse model of obesity; assay: Mouse diet-induced obesity model (Example 19); conditions: low fat control diet D12328, 25 or 90 mg/kg/d
From the text: The high-fat diet-fed C57BL/6J mouse model of human diabetes, originally introduced by Surwit and colleagues (Surwit, R S, et al. (1988) “Diet-induced type II diabetes in C57BL/6J mice”, Diabetes 37: 1163-1167) is a widely accepted, clinically relevant, polygenic model that induces obesity, dyslipidemia, glucose- and insulin-resistance as early as 3 weeks after commencing the high fat diet (Winzell, M S and Ahren, B (2004) “The high-fat diet-fed mouse: a model for studying mechanisms and treatment of impaired glucose tolerance and type 2 diabetes”, Diabetes 53 Suppl 3: S215-219). This model was used to investigate the effects of indole and indole-related Test Articles. Avandia (rosiglitazone) was used as a control Test Article. […]
In these studies and the accompanying figures, Diet D12328 from Research Diets is referred to as the “Low Fat” or Control diet/chow, while Diet D12331 from Research Diets is referred to as the “High Fat” diet. […] The Test Article content was calculated such that ad libitum consumption by the animals would deliver doses (in mg of Test Article per kg animal weight per day) approximating those listed in Table 11.
Animals were maintained on the diets for up to eleven weeks. Body weights were recorded weekly. […] The serum was analyzed for glucose, total cholesterol, triglycerides (TG) and lysophospholipid (LPC) content. […]

Cc1c(C(=O)C(N)=O)c2c(OCC(=O)O)cccc2n1CCCCCCCCCCCCOc1ccc(C(C)(C)c2ccc(OCCCCCCCCCCCCn3c(C)c(C(=O)C(N)=O)c4c(OCC(=O)O)cccc43)cc2)cc1 [ILY4011]
clinical pathology data, treated groups vs vehicle control group (mice): no differences | effect of test article in animals fed low fat control diet [1]: No or little effect | effect of test article in animals fed low fat control diet [2]: No or little effect
